From BindingDB's records for doi:10.7270/Q21G0K51 (University of Carthage, 2017) come the findings set out here.

Test [1] deals with Carboxylic ester hydrolase (Equus caballus, UniProt Q9N1N9). Kind of test: Cholinesterase Activity Assay. As to the method: (§1) The eight synthesized dialkyl-3-cyanopropylphosphates (3a-h) were dissolved in0.01 M dimethyl sulphoxide and then diluted in demineralized water to 1 mM and 0.1 mM.
In test [2] the target is Acetylcholinesterase (Electrophorus electricus, UniProt O42275). Briefly: Cholinesterase Activity Assay. As for the experimental part: as §1
Acetylcholinesterase, sequence (O42275 whole entry): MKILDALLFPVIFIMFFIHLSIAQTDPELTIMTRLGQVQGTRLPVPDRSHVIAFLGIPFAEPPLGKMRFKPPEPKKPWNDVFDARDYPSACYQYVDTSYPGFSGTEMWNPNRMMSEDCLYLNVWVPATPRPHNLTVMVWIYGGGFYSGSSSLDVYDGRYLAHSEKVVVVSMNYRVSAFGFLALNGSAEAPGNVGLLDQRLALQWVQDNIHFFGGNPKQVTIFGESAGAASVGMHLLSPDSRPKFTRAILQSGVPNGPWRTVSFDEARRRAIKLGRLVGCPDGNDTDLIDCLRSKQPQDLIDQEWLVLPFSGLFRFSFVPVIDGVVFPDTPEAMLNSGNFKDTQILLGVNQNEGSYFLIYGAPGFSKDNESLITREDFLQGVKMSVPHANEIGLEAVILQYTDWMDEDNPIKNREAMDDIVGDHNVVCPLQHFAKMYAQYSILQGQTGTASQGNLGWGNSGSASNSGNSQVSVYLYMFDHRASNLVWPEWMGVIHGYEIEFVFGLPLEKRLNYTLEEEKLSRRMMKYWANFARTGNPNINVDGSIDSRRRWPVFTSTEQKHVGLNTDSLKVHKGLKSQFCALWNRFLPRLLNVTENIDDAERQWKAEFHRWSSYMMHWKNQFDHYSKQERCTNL

Carboxylic ester hydrolase, sequence (Q9N1N9 whole entry): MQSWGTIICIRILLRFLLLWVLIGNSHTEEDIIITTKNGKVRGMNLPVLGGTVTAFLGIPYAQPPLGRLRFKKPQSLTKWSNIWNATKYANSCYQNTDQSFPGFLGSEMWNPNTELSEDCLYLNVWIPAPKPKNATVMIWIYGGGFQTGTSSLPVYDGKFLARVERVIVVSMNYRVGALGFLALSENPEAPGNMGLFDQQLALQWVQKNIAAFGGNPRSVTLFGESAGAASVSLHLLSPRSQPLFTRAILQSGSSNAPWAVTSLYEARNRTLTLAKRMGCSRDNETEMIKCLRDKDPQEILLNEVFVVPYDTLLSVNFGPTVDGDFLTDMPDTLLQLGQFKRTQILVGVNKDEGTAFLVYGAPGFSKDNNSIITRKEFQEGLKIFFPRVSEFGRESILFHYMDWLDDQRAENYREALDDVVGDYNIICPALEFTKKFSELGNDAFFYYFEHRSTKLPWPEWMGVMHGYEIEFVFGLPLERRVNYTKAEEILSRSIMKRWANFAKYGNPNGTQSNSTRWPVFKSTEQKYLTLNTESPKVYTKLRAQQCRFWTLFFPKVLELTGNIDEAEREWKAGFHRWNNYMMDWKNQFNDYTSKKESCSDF

Broadly, the IC50 is the concentration needed to halve the response being measured. A high value points to a need for much substance. Consider `CCOP(=O)(OCC)OC(CCC#N)c1ccc(OC)cc1` (stereo unspecified) [Diethyl-3-cyano-1-(4-methoxyphenyl)propylphosphate (3e)], for which the IC50 in test [1] came to 20.7 µM; in test [2] it was 53.7 µM.

As to `CCOP(=O)(OCC)OC(CCC#N)c1ccc(C)cc1` (stereo unspecified) [Diethyl-3-cyano-1-p-tolylpropylphosphate (3c)], the 50% inhibitory concentration (IC50) in test [1] was found to be 5.96 µM; in test [2], 9.61 µM.

In the case of `CCOP(=O)(OCC)OC(CCC#N)c1ccccc1` (stereo unspecified) [Diethyl-3-cyano-1-phenylpropylphosphate (3a)], the values for the IC50 in test [1] and in test [2] were 18.1 µM and 33.6 µM, respectively.

As to `CCOP(=O)(OCC)OC(c1ccccc1)C(C)CC#N` (stereo unspecified) [Diethyl-3-cyano-2-methyl-1-phenylpropylphosphate (3g)], the concentration for half-maximal inhibition (IC50) in test [1] turned out to be 17.8 µM; in test [2], 35.8 µM.

In the case of `COc1ccc(C(CCC#N)OP(=O)(OC)OC)cc1` (stereo unspecified) [Dimethyl-3-cyano-1-(4-methoxyphenyl)propylphosphate (3f)], the IC50 in test [1] amounted to 23.3 µM; in test [2] it was 36.8 µM.

For the compound `COP(=O)(OC)OC(CCC#N)c1ccc(C)cc1` (stereo unspecified) [Dimethyl-3-cyano-1-p-tolylpropylphosphate (3d)], the IC50 in test [1] was 16 µM; in test [2] it was 17.3 µM.

As to `COP(=O)(OC)OC(CCC#N)c1ccccc1` (stereo unspecified) [Dimethyl-3-cyano-1-phenylpropylphosphate (3b)], the IC50 was 19.3 µM in test [1] and 31.4 µM in test [2].

On to `COP(=O)(OC)OC(c1ccccc1)C(C)CC#N` (stereo unspecified) [Dimethyl-3-cyano-2-methyl-1-phenylpropylphosphate (3h)], for which the IC50 in test [1] was determined as 20.6 µM; in test [2], 29.5 µM.
